In ChEMBL document CHEMBL1201862, “PubChem BioAssay data set” (2004):
Where a name gives a salt, the structure may show the parent alone. Activity calls are given as the source filed them.

Tests used:
Cytochrome P450 2D6 = Cytochrome P450 2D6 (Homo sapiens, UniProt P10635);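 also: CYP2D6 member of a cytochrome P450 panel assay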
[1] = Luminescence Cell-Based Dose Retest to Confirm Inhibitors of Cancer Stem Cells. [Related pubchem assays (depositor defined):AID2717, AID2721]; type: functional; conditions: Homo sapiens
Cytochrome P450 2C19 = Cytochrome P450 2C19 (Homo sapiens, UniProt P33261); experiment: Cytochrome panel assay with activity outcomes. Panel member name: p450-cyp2c19 Compounds with AC50 equal or less than 10 uM are considered active; type: functional
H4 = experiment: Luminescence Cell-Based Dose Response HTS to Identify Activators of 5'UTR Stem-Loop Driven Prion Protein mRNA Translation in H4 Neuroglioblastoma Cells. [Related pubchem assays: 1829 (Project Summary), 1814 (Primary HTS)]; type: functional; conditions: Homo sapiens
[2] = Luminescence Cell-Based Dose Confirmation HTS to Identify Inhibitors of Platelet Dense Granule Release. [Related pubchem assays: 1663 (Primary HTS), 1678 (Summary of Project)]; type: functional
[3] = target: Luciferin 4-monooxygenase (Photinus pyralis, UniProt P08659); experiment: inhibition of purified Photinus pyralis luciferase – biochemical, luminescence, dose response (AID 1891)
[4] = target: T1, Heat shock factor protein 1 (Mus musculus, UniProt P38532); experiment: enhancement of HSF1-driven luciferase signal – cell-based, NIH3T3, luminescence, dose retest, confirmation (AID 435004); type: functional;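 also: stress induced by proteasome inhibitor MG132 added 30 min after compound; luciferase reporter driven by HSF1 response element in NIH3T3 cells; actives raise luminescence as potentiators of the MG132 stress response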
T1 sequence (P38532 whole entry): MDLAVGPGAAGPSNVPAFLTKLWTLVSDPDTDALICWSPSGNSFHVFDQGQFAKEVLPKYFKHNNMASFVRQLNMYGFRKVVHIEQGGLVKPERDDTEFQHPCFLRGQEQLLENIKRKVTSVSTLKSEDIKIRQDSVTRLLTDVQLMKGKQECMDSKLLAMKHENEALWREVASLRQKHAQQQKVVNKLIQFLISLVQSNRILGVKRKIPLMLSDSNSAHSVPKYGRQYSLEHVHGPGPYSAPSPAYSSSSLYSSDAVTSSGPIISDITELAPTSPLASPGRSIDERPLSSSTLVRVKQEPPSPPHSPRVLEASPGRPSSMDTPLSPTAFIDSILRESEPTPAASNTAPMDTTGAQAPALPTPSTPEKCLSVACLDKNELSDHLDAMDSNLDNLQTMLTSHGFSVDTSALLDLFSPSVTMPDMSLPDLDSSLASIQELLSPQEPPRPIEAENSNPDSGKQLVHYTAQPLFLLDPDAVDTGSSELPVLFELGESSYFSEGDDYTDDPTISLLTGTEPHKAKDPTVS

Cytochrome P450 3A4 = Cytochrome P450 3A4 (Homo sapiens, UniProt P08684);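 also: CYP3A4 tested as one member of a cytochrome P450 panel screen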
[5] = target: FAD-linked sulfhydryl oxidase ALR (Homo sapiens, UniProt P55789); experiment: ALR-catalysed DTT oxidation blockers – biochemical, H2O2 detection, luminescence, cherry-pick, dose response (AID 493248)
Cytochrome P450 1A2 = target: T2, Cytochrome P450 1A2 (Homo sapiens, UniProt P05177);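 also: PubChem cytochrome P450 panel assay, CYP1A2 panel member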
T2 sequence (P05177 whole entry): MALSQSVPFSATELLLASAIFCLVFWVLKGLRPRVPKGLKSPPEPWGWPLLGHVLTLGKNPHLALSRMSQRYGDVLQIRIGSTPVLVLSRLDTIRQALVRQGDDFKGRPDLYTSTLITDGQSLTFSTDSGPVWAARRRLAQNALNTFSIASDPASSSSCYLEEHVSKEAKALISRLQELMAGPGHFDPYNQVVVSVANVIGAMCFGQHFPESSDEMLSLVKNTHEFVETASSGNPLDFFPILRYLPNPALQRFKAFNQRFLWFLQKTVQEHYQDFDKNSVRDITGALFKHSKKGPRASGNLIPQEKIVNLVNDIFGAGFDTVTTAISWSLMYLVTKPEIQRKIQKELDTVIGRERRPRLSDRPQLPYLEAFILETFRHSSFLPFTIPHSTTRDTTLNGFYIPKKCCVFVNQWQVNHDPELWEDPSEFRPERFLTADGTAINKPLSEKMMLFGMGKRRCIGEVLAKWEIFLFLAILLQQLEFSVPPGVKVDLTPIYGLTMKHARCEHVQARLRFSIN

[6] = target: T3, Calpain-2 catalytic subunit (Sus scrofa, UniProt P43367); experiment: m-calpain protease blockers, concentration series – biochemical, fluorogenic peptide substrate, dose response (AID 1420); type: functional
T3 sequence (P43367 whole entry): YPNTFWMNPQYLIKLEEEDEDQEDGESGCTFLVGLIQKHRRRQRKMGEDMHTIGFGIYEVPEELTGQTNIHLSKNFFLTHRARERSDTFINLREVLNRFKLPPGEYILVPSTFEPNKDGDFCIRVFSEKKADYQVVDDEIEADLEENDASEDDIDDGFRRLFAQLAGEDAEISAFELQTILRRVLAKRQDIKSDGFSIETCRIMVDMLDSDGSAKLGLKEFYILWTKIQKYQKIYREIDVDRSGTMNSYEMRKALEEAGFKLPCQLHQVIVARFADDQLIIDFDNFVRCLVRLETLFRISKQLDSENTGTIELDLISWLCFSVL

[7] = P. falciparum Dd2 growth inhibitors, dose response, SYBR Green, cherry-picked samples (AID 1159567); type: functional, cell-based

Cytochrome P450 2D6, sequence (P10635 whole entry): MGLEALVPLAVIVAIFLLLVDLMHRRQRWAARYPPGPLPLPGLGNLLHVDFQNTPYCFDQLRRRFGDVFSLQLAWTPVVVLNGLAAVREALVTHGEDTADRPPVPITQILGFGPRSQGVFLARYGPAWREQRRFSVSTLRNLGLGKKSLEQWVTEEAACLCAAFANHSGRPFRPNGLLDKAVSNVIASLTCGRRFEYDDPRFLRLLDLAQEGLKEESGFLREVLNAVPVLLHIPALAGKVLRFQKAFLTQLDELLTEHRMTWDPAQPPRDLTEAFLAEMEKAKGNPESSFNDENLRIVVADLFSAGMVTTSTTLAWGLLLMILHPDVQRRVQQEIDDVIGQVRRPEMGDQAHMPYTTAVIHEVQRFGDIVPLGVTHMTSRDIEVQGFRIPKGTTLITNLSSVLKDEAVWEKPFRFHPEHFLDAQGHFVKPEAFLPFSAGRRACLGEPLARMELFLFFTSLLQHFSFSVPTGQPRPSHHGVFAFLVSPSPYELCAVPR
FAD-linked sulfhydryl oxidase ALR, sequence (P55789 whole entry): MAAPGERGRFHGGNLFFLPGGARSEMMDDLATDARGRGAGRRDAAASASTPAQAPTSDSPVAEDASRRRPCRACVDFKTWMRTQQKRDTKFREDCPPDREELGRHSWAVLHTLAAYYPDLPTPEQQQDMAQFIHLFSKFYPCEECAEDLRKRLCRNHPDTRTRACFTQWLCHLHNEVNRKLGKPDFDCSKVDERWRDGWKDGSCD
Cytochrome P450 2C19, sequence (P33261 whole entry): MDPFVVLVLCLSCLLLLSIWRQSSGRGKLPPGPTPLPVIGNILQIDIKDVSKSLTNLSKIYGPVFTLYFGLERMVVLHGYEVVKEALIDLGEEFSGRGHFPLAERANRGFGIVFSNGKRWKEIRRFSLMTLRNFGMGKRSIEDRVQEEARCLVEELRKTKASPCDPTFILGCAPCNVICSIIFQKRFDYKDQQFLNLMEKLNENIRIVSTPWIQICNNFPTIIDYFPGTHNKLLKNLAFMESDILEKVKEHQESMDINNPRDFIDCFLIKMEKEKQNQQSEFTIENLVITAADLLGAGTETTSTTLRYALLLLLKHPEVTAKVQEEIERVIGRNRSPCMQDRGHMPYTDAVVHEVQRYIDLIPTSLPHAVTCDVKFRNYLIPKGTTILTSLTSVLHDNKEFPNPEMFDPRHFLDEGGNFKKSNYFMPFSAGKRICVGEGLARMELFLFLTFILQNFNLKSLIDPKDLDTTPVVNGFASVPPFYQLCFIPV
Cytochrome P450 3A4, sequence (P08684 whole entry): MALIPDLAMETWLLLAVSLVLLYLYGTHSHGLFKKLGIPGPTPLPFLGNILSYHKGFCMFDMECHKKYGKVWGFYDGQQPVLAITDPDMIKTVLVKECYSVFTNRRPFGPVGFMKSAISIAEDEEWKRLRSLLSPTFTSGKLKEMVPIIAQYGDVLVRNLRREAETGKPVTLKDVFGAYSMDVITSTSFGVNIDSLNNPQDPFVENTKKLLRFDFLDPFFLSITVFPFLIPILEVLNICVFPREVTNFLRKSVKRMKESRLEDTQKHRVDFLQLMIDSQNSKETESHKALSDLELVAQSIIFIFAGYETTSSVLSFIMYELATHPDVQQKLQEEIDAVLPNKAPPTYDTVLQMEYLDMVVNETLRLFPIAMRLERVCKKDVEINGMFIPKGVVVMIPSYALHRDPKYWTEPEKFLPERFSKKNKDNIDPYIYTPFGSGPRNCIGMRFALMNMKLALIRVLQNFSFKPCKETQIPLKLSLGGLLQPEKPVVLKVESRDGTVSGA
Luciferin 4-monooxygenase, sequence (P08659 whole entry): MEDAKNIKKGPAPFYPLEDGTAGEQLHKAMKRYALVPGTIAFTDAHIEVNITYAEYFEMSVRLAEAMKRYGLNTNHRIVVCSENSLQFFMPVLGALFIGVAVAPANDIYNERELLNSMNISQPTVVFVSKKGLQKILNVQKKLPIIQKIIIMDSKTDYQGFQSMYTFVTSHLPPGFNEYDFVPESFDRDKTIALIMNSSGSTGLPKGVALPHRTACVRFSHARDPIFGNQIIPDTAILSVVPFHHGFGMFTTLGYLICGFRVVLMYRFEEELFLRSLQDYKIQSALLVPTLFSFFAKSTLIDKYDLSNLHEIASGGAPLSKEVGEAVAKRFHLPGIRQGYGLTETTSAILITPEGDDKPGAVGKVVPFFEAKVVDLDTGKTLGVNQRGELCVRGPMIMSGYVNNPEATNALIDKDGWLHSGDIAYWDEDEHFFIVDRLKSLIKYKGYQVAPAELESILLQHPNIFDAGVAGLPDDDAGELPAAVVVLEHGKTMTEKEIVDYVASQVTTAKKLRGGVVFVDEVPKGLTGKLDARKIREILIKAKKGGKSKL

With `N=C(N)SCc1nc2ccccc2c(=O)n1-c1ccccc1Cl` the AC50 (Cytochrome P450 2D6) was 0.316 µM (inconclusive), the AC50 [1] was 6.37 µM (active) and the AC50 (Cytochrome P450 2C19; read-out: AC50) was 10 µM (inconclusive).
In the case of `COc1ccc(C(=O)Nc2ccccc2C(=O)N/N=C/c2cccc3ccccc23)cc1`, the EC50 (H4) is reported as > 120 µM (not active), the EC50 [2] is reported as 1.15 µM (active) and the EC50 [3] is reported as 1.35 µM (active).
In the case of `Cc1cc2c(ncn2C)c(NS(=O)(=O)c2cc(Cl)ccc2Cl)c1C`, the EC50 [4] is reported as > 260 µM (inactive).
In the case of `COc1ccc2nc(NC(=O)CSc3nnc(C)s3)sc2c1`, the AC50 (Cytochrome P450 3A4) is reported as 3.98 µM (inconclusive) and the AC50 (Cytochrome P450 2C19; read-out: AC50) is reported as 3.55 µM (inconclusive).
For `COc1ccc(-c2c[nH]nc2-c2ccc(OCc3ccc([N+](=O)[O-])cc3)cc2O)cc1OC`, the EC50 [4] was > 260 µM (inactive).
With `O=C(O)CCC(=O)NCCn1c(-c2ccccc2)cs/c1=N\c1ccccc1` the EC50 [4] was > 260 µM (inactive) and the AC50 [5] was 22.3 µM (active).
In the case of `COCCn1c(=O)c(-c2cn(C)c3ccccc23)nc2cnc(Oc3ccc(OC)cc3)nc21`, the AC50 (Cytochrome P450 1A2) is reported as 2.51 µM (inconclusive) and the AC50 (Cytochrome P450 2C19; read-out: AC50) is reported as 15.8 µM (inconclusive).
For `CC(C)CN1CCCC2(CCN(S(=O)(=O)c3ccccc3)CC2)C1`, the AC50 (Cytochrome P450 2C19; read-out: AC50) was 31.6 µM (inconclusive).
In the case of `COc1cccc(Nc2ccccc2C(=O)O)c1`, the AC50 [5] is reported as 3.35 µM (active).
For `CCc1noc(N)c1C(=O)Nc1ccc(F)c(Cl)c1`, the AC50 (Cytochrome P450 2D6) was 22.4 µM (inconclusive), the AC50 (Cytochrome P450 3A4) was 15.8 µM (inconclusive) and the AC50 (Cytochrome P450 2C19; read-out: AC50) was 15.8 µM (inconclusive).
For `COc1ccc(Nc2c(-c3ccc(C)cc3)nc3cnccn23)cc1`, the IC50 [6] was > 50 µM (not active) and the AC50 [5] was 0.763 µM (active).
For `COc1cccc(NC(=O)N(C)C[C@H]2Oc3ncc(/C=C/c4ccccc4)cc3C(=O)N([C@@H](C)CO)C[C@@H]2C)c1`, the AC50 [7] was 6.14 µM (active).
In the case of `COc1ccc(NC(=O)COc2ccc(CNCCCN3CCOCC3)cc2OC)cc1.Cl`, the AC50 (Cytochrome P450 2C19) is reported as “inconclusive”.
With `Cc1cccc(COc2ccc(/C=N/NC(=O)c3nnn(-c4nonc4N)c3COc3ccc(F)cc3)cc2)c1` the EC50 (H4) was 61.7 µM (active).
With `O=C(O)c1cccc2c3c([nH]c12)CCCC3` the AC50 [5] was 5.66 µM (active).
With `CC(=O)Nc1ccc(NC(=O)c2ccccc2CC[N+](=O)[O-])cc1` the AC50 (Cytochrome P450 2D6) was 14.1 µM (inconclusive) and the AC50 (Cytochrome P450 2C19; read-out: AC50) was 0.355 µM (inconclusive).
For `O=C(c1ccc(F)cc1)N1CC(=O)N2[C@H](CO)[C@H](c3ccc(C#Cc4ccc(F)cc4)cc3)[C@H]2C1`, the AC50 [7] was 4.05 µM (active).
For `CC(=O)c1nn(-c2cccc(Br)c2)cc1C(=O)c1ccc(Cl)cc1`, the EC50 [4] was > 260 µM (inactive).
For `C=CCn1c(S)nnc1C1CCCCC1`, the EC50 [4] was > 260 µM (inactive).
With `N#Cc1ccc(CN2CC3(CCN(C(=O)c4cc(C(F)(F)F)cc(C(F)(F)F)c4)CC3)C2)cc1` the AC50 (Cytochrome P450 2D6) was 31.6 µM (inconclusive) and the AC50 (Cytochrome P450 2C19; read-out: AC50) was 39.8 µM (inconclusive).
With `CCOC(=O)c1ccccc1NC(=O)/C(C)=C/C(=O)O` the AC50 (Cytochrome P450 1A2) was 20 µM (inconclusive) and the AC50 (Cytochrome P450 2C19; read-out: AC50) was 39.8 µM (inconclusive).
For `CC(C(=O)Nc1ccccc1Br)N1c2cccc3cccc(c23)S1(=O)=O` (centres undefined), the EC50 [4] was > 260 µM (inactive).
In the case of `NC(=O)NC(=O)C(Nc1ccc(N2CCCCC2)cc1)c1ccccc1` (centres undefined), the AC50 [5] is reported as 0.797 µM (active).
In the case of `N#C[C@@H]1[C@H](c2ccc(C#CC3CCCCC3)cc2)[C@H](CO)N1C(=O)Nc1ccc(F)cc1`, the AC50 [7] is reported as 5.43 µM (active).
For `CN1CCN([C@@H](c2ccccc2)c2ccc(Cl)cc2)CC1` [CHLORCYCLIZINE HYDROCHLORIDE], the AC50 (Cytochrome P450 2C19; read-out: AC50) was 3.98 µM (inconclusive).
With `O=C(c1c[nH]c2ccccc12)N1CCN(c2ccccc2)CC1` the AC50 [5] was 4.16 µM (active).
For `COc1ccc(NC(=O)NC2CC3CCCC(C2)N3Cc2ccccc2)cc1` (centres undefined), the AC50 (Cytochrome P450 2D6) was 11.2 µM (inconclusive) and the AC50 (Cytochrome P450 2C19; read-out: AC50) was 14.1 µM (inconclusive).
In the case of `O=C(CCC(=O)N1CCN(c2ccc(O)cc2)CC1)c1ccc(Br)cc1`, the AC50 [1] is reported as 6.98 µM (active) and the EC50 [4] is reported as > 260 µM (inactive).
For `O=C(OC1CCOC1=O)c1cc(Cl)ccc1[N+](=O)[O-]` (centres undefined), the EC50 [4] was > 260 µM (inactive).
With `N#Cc1c(NC(=O)c2ccccc2)sc2c1CCC2` the EC50 (H4) was 12.6 µM (active).
For `CCCN(C)C[C@@H]1Oc2cc(C#CC3CCCC3)ccc2S(=O)(=O)N([C@@H](C)CO)C[C@@H]1C`, the AC50 [7] was 4.85 µM (active).
With `CC(C)NC(=O)N1[C@H](C#N)[C@H](c2ccc(-c3ccc(F)cc3)cc2)[C@@H]1CO` the AC50 [7] was 4.17 µM (active).
With `C[C@H](CO)N1C[C@H](C)[C@H](CN(C)S(=O)(=O)c2ccccc2)Oc2ccc(NC(=O)Cc3cn(C)c4ccccc34)cc2C1=O` the AC50 [7] was 3.2 µM (active).
In the case of `CCS(=O)(=O)N1CC2(CN(Cc3ccccc3F)[C@@H](CO)c3[nH]c4cc(OC)ccc4c32)C1`, the AC50 [7] is reported as 9.94 µM (active).
